This is an account of results in US20260256789A1, “METHODS FOR TREATMENT OF CANCER” (Frontier Medicines Corporation, priority 2022, published 2026).

SMILES strings stand for the structures. Bounds are passed on as bounds.

T1 sequence (P01116 1-169 isoform P01116-2 G12C/C51S/C80L/C118S): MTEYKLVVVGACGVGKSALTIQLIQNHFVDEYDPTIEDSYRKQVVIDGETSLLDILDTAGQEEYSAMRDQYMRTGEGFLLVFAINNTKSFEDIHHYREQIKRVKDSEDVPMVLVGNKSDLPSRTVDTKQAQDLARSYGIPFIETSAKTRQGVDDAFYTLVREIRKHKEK

This assay addresses T1, KRAS G12C (GMPPNP-loaded) and cRAF Ras-binding domain (Homo sapiens, UniProt P01116, C118S/C51S/C80L/G12C).
T1 construct: truncated version comprising amino acids 1-169
Put plainly: Inhibition of KRAS G12C and cRAF binding (AlphaScreen). The note with it: KRAS G12C preloaded with GTP analogue GMPPNP, 2 hours preincubation. The method, boiled down:
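AlphaScreen used biotin-AviTag KRAS G12C (Cys-light, aa 1-169; 0.5 nM), GMPPNP-loaded, preincubated 2 h with compound (top 50 μM, 1:3, 10 points, 2% DMSO) in pH 7.4 Hepes buffer with 10 μM GMPPNP. GST-cRAF RBD (aa 50-131; 0.75 nM) plus beads were then added for 60-90 min at room temperature, and IC50 came from a 4-parameter fit.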
For the molecule `C=CC(=O)N1CC(CN(C)c2nc(OC[C@@]34CCCN3C[C@H](F)C4)nc3c(F)c(-c4nc(N)cc(C)c4C4CC4)ncc23)C1` [Example 133, 1-(3-(((7-(6-amino-3-cyclopropyl-4-methylpyridin-2-yl)-8-fluoro-2-(((2R,7aS)-2-fluorotetrahydro-1H-pyrrolizin-7a(5H)-yl)methoxy)pyrido[4,3-d]pyrimidin-4-yl)(methyl)amino)methyl)azetidin-1-yl)prop-2-en-1-one], the IC50 (usually the concentration that gives 50% inhibition) was at least 500 nM.

Take `CN1CC[C@H]1/C=C/C(=O)N1CC[C@@H](N(C)c2nc(OC[C@@]34CCCN3C[C@H](F)C4)nc3c(F)c(-c4nc(N)cc5cccc(F)c45)ncc23)C1` [Example 135]: the half-inhibitory concentration (IC50) was in the range of 100 to 500 nM.

`Cc1noc(/C=C/C(=O)N2CC[C@@H](N(C)c3nc(OC[C@@]45CCCN4C[C@H](F)C5)nc4c3C[C@@H](C)[C@H](c3nc(N)cc(C)c3C(F)(F)F)C4)C2)n1` [Example 136] returned an IC50 below 10 nM.

The molecule `C=CC(=O)N1CC(CN(C)c2nc(OC[C@@]34CCCN3C[C@H](F)C4)nc3c2C[C@H](C)[C@@H](c2nc(N)cc(C)c2C(F)(F)F)C3)C1` [Example 137, 1-(3-((((6S,7S)-7-(6-amino-4-methyl-3-(trifluoromethyl)pyridin-2-yl)-2-(((2R,7aS)-2-fluorotetrahydro-1H-pyrrolizin-7a(5H)-yl)methoxy)-6-methyl-5,6,7,8-tetrahydroquinazolin-4-yl)(methyl)amino)methyl)azetidin-1-yl)prop-2-en-1-one] showed an IC50 of at least 500 nM.

`C=CC(=O)N1CC[C@@H](N(C)c2nc(OC[C@@]34CCCN3C[C@H](F)C4)nc3c2CC(C)C(c2nc(N)cc(C)c2C(F)(F)F)C3)C1` (stereo partly drawn) [Example 138] gave an IC50 of 100 to 500 nM.

As for `Cc1cc(N)nc(-c2ncc3c(N(C)[C@@H]4CCN(C(=O)/C=C/c5nc(C(C)(C)O)no5)C4)nc(OC[C@@]45CCCN4C[C@H](F)C5)nc3c2F)c1C(F)(F)F` [Example 139], the IC50 is below 10 nM.

`Cc1nccc(/C=C/C(=O)N2CC(CN(C)c3nc(OC[C@@]45CCCN4C[C@H](F)C5)nc4c(F)c(-c5nc(N)cc6cccc(F)c56)ncc34)C2)n1` [Example 141, (E)-1-(3-(((7-(3-amino-8-fluoroisoquinolin-1-yl)-8-fluoro-2-(((2R,7aS)-2-fluorotetrahydro-1H-pyrrolizin-7a(5H)-yl)methoxy)pyrido[4,3-d]pyrimidin-4-yl)(methyl)amino)methyl)azetidin-1-yl)-3-(2-methylpyrimidin-4-yl)prop-2-en-1-one] returned an IC50 of 10 to 100 nM.

Turning to `CN(c1nc(OC[C@@]23CCCN2C[C@H](F)C3)nc2c(F)c(-c3nc(N)cc4cccc(F)c34)ncc12)[C@@H]1CCN(C(=O)/C=C/c2nc(C(C)(C)O)no2)C1` [Example 142], the IC50 is below 10 nM.

`Cc1noc(/C=C/C(=O)N2CC[C@@H](N(C)c3nc(OCC45CCCN4CCC5)nc4c3CC(C)C(c3nc(N)cc(C)c3C(F)(F)F)C4)C2)n1` (stereo partly drawn) [Example 143] showed an IC50 below 10 nM.

As to `C=CC(=O)N1CC[C@@H](N(C)c2nc(OC[C@@]34CCCN3C[C@H](F)C4)nc3c2C[C@H](C)[C@@H](c2nc(N)cc(C)c2C(F)(F)F)C3)C1` [Example 145, 1-((R)-3-(((6S,7S)-7-(6-amino-4-methyl-3-(trifluoromethyl)pyridin-2-yl)-2-(((2R,7aS)-2-fluorotetrahydro-1H-pyrrolizin-7a(5H)-yl)methoxy)-6-methyl-5,6,7,8-tetrahydroquinazolin-4-yl)(methyl)amino)pyrrolidin-1-yl)prop-2-en-1-one], the IC50 was at least 500 nM.

`C=CC(=O)N1CC(CN(C)c2nc(OC[C@@]34CCCN3C[C@H](F)C4)nc3c(F)c(-c4nc(N)cc(C)c4C)ncc23)C1` [Example 146, 1-(3-(((7-(6-amino-3,4-dimethylpyridin-2-yl)-8-fluoro-2-(((2R,7aS)-2-fluorotetrahydro-1H-pyrrolizin-7a(5H)-yl)methoxy)pyrido[4,3-d]pyrimidin-4-yl)(methyl)amino)methyl)azetidin-1-yl)prop-2-en-1-one] registered an IC50 of at least 500 nM.

Regarding `Cc1cc(N)nc(N2CCc3c(nc(OC[C@@]45CCCN4C[C@H](F)C5)nc3N(C)[C@@H]3CCN(C(=O)/C=C/c4nc(C(C)C)no4)C3)C2)c1C(F)(F)F` [Example 147, (E)-1-((R)-3-((7-(6-amino-4-methyl-3-(trifluoromethyl)pyridin-2-yl)-2-(((2R,7aS)-2-fluorotetrahydro-1H-pyrrolizin-7a(5H)-yl)methoxy)-5,6,7,8-tetrahydropyrido[3,4-d]pyrimidin-4-yl)(methyl)amino)pyrrolidin-1-yl)-3-(3-isopropyl-1,2,4-oxadiazol-5-yl)prop-2-en-1-one], the IC50 was at least 500 nM.

Consider `C=CC(=O)N1CC[C@@H](N(C)c2nc(OCC34CCCN3CCC4)nc3c2C[C@H](C)[C@@H](c2nc(N)cc(C)c2C(F)(F)F)C3)C1` [Example 148, 1-((R)-3-(((6S,7S)-7-(6-amino-4-methyl-3-(trifluoromethyl)pyridin-2-yl)-6-methyl-2-((tetrahydro-1H-pyrrolizin-7a(5H)-yl)methoxy)-5,6,7,8-tetrahydroquinazolin-4-yl)(methyl)amino)pyrrolidin-1-yl)prop-2-en-1-one], for which the IC50 lay in the range of 100 to 500 nM.

`C=CC(=O)N1CC[C@@H](N(C)c2nc(OCC34CCCN3CCC4)nc3c2C[C@@H](C)[C@H](c2nc(N)cc(C)c2C(F)(F)F)C3)C1` [Example 149, 1-((R)-3-(((6R,7R)-7-(6-amino-4-methyl-3-(trifluoromethyl)pyridin-2-yl)-6-methyl-2-((tetrahydro-1H-pyrrolizin-7a(5H)-yl)methoxy)-5,6,7,8-tetrahydroquinazolin-4-yl)(methyl)amino)pyrrolidin-1-yl)prop-2-en-1-one] came in with an IC50 of at least 500 nM.

As to `Cc1noc(/C=C/C(=O)N2CC[C@@H](N(C)c3nc(OC[C@@]45CCCN4C[C@H](F)C5)nc4c(F)c(-c5nc(N)cc6cccc(Cl)c56)ncc34)C2)n1` [Example 150, (E)-1-((R)-3-((7-(3-amino-8-chloroisoquinolin-1-yl)-8-fluoro-2-(((2R,7aS)-2-fluorotetrahydro-1H-pyrrolizin-7a(5H)-yl)methoxy)pyrido[4,3-d]pyrimidin-4-yl)(methyl)amino)pyrrolidin-1-yl)-3-(3-methyl-1,2,4-oxadiazol-5-yl)prop-2-en-1-one], the IC50 is below 10 nM.

`CN(CC1CN(C(=O)/C=C/c2nc(C(C)(C)O)no2)C1)c1nc(OC[C@@]23CCCN2C[C@H](F)C3)nc2c(F)c(-c3nc(N)cc4cccc(Cl)c34)ncc12` [Example 151] gave an IC50 below 10 nM.

In the case of `Cc1cc(N)nc(-c2ncc3c(N(C)CC4CN(C(=O)/C=C/c5nc(C(C)C)no5)C4)nc(OC[C@@]45CCCN4C[C@H](F)C5)nc3c2F)c1C(F)(F)F` [Example 153], the IC50 is below 10 nM.

In turn, `Cc1cc(N)nc(-c2ncc3c(N(C)CC4CN(C(=O)/C=C/c5nc(C(C)C)no5)C4)nc(OC[C@@]45CCCN4C[C@H](F)C5)nc3c2F)c1C(F)(F)F` [Example 154] yielded an IC50 of 10 to 100 nM.

For the molecule `Cc1nccc(/C=C/C(=O)N2CC(CN(C)c3nc(OC[C@@]45CCCN4C[C@H](F)C5)nc4c(F)c(-c5nc(N)cc6cccc(Cl)c56)ncc34)C2)n1` [Example 156, (E)-1-(3-(((7-(3-amino-8-chloroisoquinolin-1-yl)-8-fluoro-2-(((2R,7aS)-2-fluorotetrahydro-1H-pyrrolizin-7a(5H)-yl)methoxy)pyrido[4,3-d]pyrimidin-4-yl)(methyl)amino)methyl)azetidin-1-yl)-3-(2-methylpyrimidin-4-yl)prop-2-en-1-one], the IC50 lay in the range of 10 to 100 nM.

As to `Cc1nsc(/C=C/C(=O)N2CC[C@@H](N(C)c3nc(OC[C@@]45CCCN4C[C@H](F)C5)nc4c3C[C@@H](C)[C@H](c3nc(N)cc(C)c3C(F)(F)F)C4)C2)n1` [Example 158, (E)-1-((R)-3-(((6R,7R)-7-(6-amino-4-methyl-3-(trifluoromethyl)pyridin-2-yl)-2-(((2R,7aS)-2-fluorotetrahydro-1H-pyrrolizin-7a(5H)-yl)methoxy)-6-methyl-5,6,7,8-tetrahydroquinazolin-4-yl)(methyl)amino)pyrrolidin-1-yl)-3-(3-methyl-1,2,4-thiadiazol-5-yl)prop-2-en-1-one], the IC50 lay within 10 to 100 nM.

With `Cc1cc(N)nc(-c2ncc3c(N(C)[C@@H]4CCN(C(=O)C#CCN(C)C)C4)nc(OC[C@@]45CCCN4C[C@H](F)C5)nc3c2F)c1C(F)(F)F` [Example 159], the IC50 was below 10 nM.

`Cc1nsc(/C=C/C(=O)N2CC[C@@H](N(C)c3nc(OC[C@@]45CCCN4C[C@H](F)C5)nc4c(F)c(-c5nc(N)cc(C)c5C(F)(F)F)ncc34)C2)n1` [Example 164] had an IC50 of 10 to 100 nM.

Turning to `C=CC(=O)N1CC[C@@H](N(C)c2nc(OC[C@@]34CCCN3C[C@H](F)C4)nc3c(F)c(-c4nc(N)ccc4C4CC4)ncc23)C1` [Example 166, 1-((R)-3-((7-(6-amino-3-cyclopropylpyridin-2-yl)-8-fluoro-2-(((2R,7aS)-2-fluorotetrahydro-1H-pyrrolizin-7a(5H)-yl)methoxy)pyrido[4,3-d]pyrimidin-4-yl)(methyl)amino)pyrrolidin-1-yl)prop-2-en-1-one], the 50% inhibitory concentration (IC50) was at least 500 nM.

In the case of `CN(c1nc(OC[C@@]23CCCN2C[C@H](F)C3)nc2c(F)c(-c3nc(N)cc4cccc(F)c34)ncc12)[C@@H]1CCN(C(=O)/C=C/CN2CCOCC2)C1` [Example 167, (E)-1-((R)-3-((7-(3-amino-8-fluoroisoquinolin-1-yl)-8-fluoro-2-(((2R,7aS)-2-fluorotetrahydro-1H-pyrrolizin-7a(5H)-yl)methoxy)pyrido[4,3-d]pyrimidin-4-yl)(methyl)amino)pyrrolidin-1-yl)-4-morpholinobut-2-en-1-one], the IC50 was at least 500 nM.
